Earlier results as cited in US12404524B2, “Expression vector” (priority 2019, dated 2025).

Tested on: common Streptomyces expression strains
Details: inducers of Potr and PnitA in single-gene expression experiments

SMILES: CN(C)[C@@H]1C(O)=C(C(N)=O)C(=O)[C@@]2(O)C(O)=C3C(=O)c4c(O)cccc4[C@@](C)(O)[C@H]3[C@H](O)[C@@H]12 [oxytetracycline]
- effect on physiology or growth rate: no effect

SMILES: O=C1CCCCCN1 [ε-caprolactam]
- effect on physiology or growth rate: no effect
